Laboratory results as given in patent US9566265B2, “Carbazole compounds and therapeutic uses of the compounds” (Incuron, LLC, priority 2008, dated 2017).
≈ marks a conversion by molar mass, not a printed value. Like-named read-outs stand apart in the source and are kept apart here.

Tests used:
p53 = p53 activation assay, p53 responsive luciferase reporter cell line; assay type: cell-based, human; conditions: Homo sapiens, 16 h, HT1080-L or RCC45ConALuc reporter cells, 16 h; read-out: EC50 value (p53 activation)
C. albicans = assay: microbe, parasite or virus in culture; assay type: cell-based; conditions: Candida albicans
Description: Candida spp. strains: 20 Candida spp. clinical isolates and one laboratory control strain (C. albicans SC5314) was used in the study. In the collection were included:
5 C. albicans isolates, two wild type strain (SC5314 and ATCC 36082), one echinocandin resistant isolate (M205) (6), and two fluconazole resistant clinical isolates (3795 and 3184) (7).

C. rugosa = assay: in vitro susceptibility CLSI M27A3, MIC; assay type: cell-based; conditions: Diutina rugosa, strain M83, WT, Susceptible
Description: (§1) Other Candida spp. and genera: 1 C. rugosa (M83), 1 C. lipolytica (M159), C. lusitaniae (200450), 1 Cryptococcus neoformans (499), and 1 Debaryomyces hansenii.

Cryptococcus neoformans = assay: in vitro susceptibility CLSI M27A3, MIC; assay type: cell-based; conditions: strain 499, WT, Susceptible
Description: as §1

bacteria = assay: antibacterial cytotoxicity assay, comparison with ampicillin control; assay type: cell-based
Procedure: In particular, the effect of carbazole compounds of the present invention on gram positive (Bacillus subtilis) and gram negative (DH5-α) bacteria was determined by the following procedure, and is summarized in FIGS. 13A and 13B.
Each library chemical to be tested requires 2 rows of a 96-well plate, thus 4 chemicals (e.g. W, X, Y, Z) can be tested in one plate simultaneously. In addition to test chemicals, each plate should include positive and negative controls. As positive control, ampicillin is used at 100 μg/ml. As a negative control, DMSO is used in an amount equal to the highest volume of test compound used (˜0.25% DMSO for 50 μM).
Besides a positive control added in one concentration on each plate, the positive control of ampicillin is added to each assay run in a full concentration range (3 fold dilutions) to ensure proper and robust assay performance (estimated by comparison of dose response curves among runs).
The average OD600 nm of the test compound solutions are compared to that of the DMSO control by dividing the average OD600 nm of the test solution by that of the DMSO control and multiplying by 100 to produce the % DMSO control (i.e. % cytotoxicity). The % DMSO control is plotted vs compound concentration to generate sigmoid shaped curves. After three runs are complete, the raw data for all three runs is used for IC50 calculations.

in vivo = conditions: nude, mouse, po
Procedure: Drug doses and schedule. […] Treatment was initiated 7 days after tumor transplantation when the tumors reached 150-200 mg. The mice in the control group received the vehicle (0.2% hydroxypropylmethylcellulose) at 200 μl per 20 g mouse body weight (same as the treatment groups). Five mice were used for each experimental group with 10 tumors (1 tumor each in the left and right side flanks).
Maximum Tolerated Dose (MTD) and toxicity evaluation. […] The kinetics of drug-induced toxicities (body weight loss, diarrhea, and lethality) were determined daily for the first 10 days after treatment and every two days thereafter.

A. flavus = assay: in vitro susceptibility CLSI M38A2, MIC; conditions: Aspergillus flavus
Description: (§2) Eight Aspergillus spp. strains were used throughout the study. Six A. fumigatus, one A. flavus and one A. terreus also were used. The A. fumigatus group included two itraconazole-resistant strains (RIT13 and RIT5 strains) (1), one triazole cross-resistant strain (MUT10) (2, 3), one echinocandin cross-resistant strain (EMFRS678P) (4), and 2 wild type susceptible isolates (R21 and ATCC13073).

A. terreus = assay: in vitro susceptibility CLSI M38A2, MIC; conditions: Aspergillus terreus
Description: as §2

## CCN(CC)CCn1c2ccc3c(c2c2c4c(ccc21)C(=O)CC4)CCC3=O [Example 15]
p53
  EC50: 0.03 µM
C. albicans; read-out: MIC* (48 hs), strain 3184, CDR1 overexpression, Fluconazole- resistant
  MIC: 0.66 µM (≈ 0.247 µg/mL)
C. albicans; strain ATCC36082, WT, Susceptible, read-out: MIC* (24 hs)
  MIC: 0.04 µM (≈ 0.015 µg/mL)
C. albicans; strain ATCC36082, WT, Susceptible, read-out: MIC* (48 hs)
  MIC: 0.04 µM (≈ 0.015 µg/mL)
C. albicans; strain SC5314, WT, Susceptible, read-out: MIC* (24 hs)
  MIC: 0.04 µM (≈ 0.015 µg/mL)
C. albicans; strain SC5314, WT, Susceptible, read-out: MIC* (48 hs)
  MIC: 0.08 µM (≈ 0.03 µg/mL)
C. rugosa; read-out: MIC* (24 hs)
  MIC: 0.16 µM (≈ 0.0599 µg/mL)
C. rugosa; read-out: MIC* (48 hs)
  MIC: 0.66 µM (≈ 0.247 µg/mL)
Cryptococcus neoformans; read-out: MIC* (24 hs)
  MIC: 0.02 µM (≈ 0.00749 µg/mL)
Cryptococcus neoformans; read-out: MIC* (48 hs)
  MIC: 0.08 µM (≈ 0.03 µg/mL)
bacteria
  effectiveness against bacteria compared with the ampicillin control: more effective
In vivo
  MTD at 4 weeks: 5 mg/kg/day
A. flavus; read-out: MIC* (24 hs)
  MIC: 0.33 µM (≈ 0.124 µg/mL)
A. flavus; read-out: MIC* (48 hs)
  MIC: 0.33 µM (≈ 0.124 µg/mL)
A. terreus; read-out: MIC* (24 hs)
  MIC: 0.08 µM (≈ 0.03 µg/mL)
A. terreus; read-out: MIC* (48 hs)
  MIC: 1.28 µM (≈ 0.479 µg/mL)
